Measured values published in patent US10208009B2, “Hydroxyl pyranone compound, method for producing same, and cosmetics composition comprising compound” (AMOREPACIFIC CORPORATION, priority 2015, dated 2019).

System: human adipose tissue derived mesenchymal stem cells (hAT-MSCs)
Test: Adipocyte differentiation promoting effect: adiponectin expression (ELISA) in differentiating mesenchymal stem cells
Assay type: cell-based
Design: Adiponectin (pg/ml, Avg ± S.D.): unit of the concentration uncertain
Details: for Adiponectin (pg/ml, Avg ± S.D.): medium collected on 14th day, ELISA; for expression level of adiponectin (in words): IDX differentiation medium + material, 14th day, summary of Table 1
Description: In order to examine the adipocyte differentiation promoting effect of the compounds prepared in the Example, the following test was carried out.
Adiponectin is a typical protein hormone secreted from adipocytes. It has been reported that as adipocytes are differentiated, the expression of adiponectin is increased. Therefore, the adipocyte differentiation promoting effect was confirmed by measuring the amount of adiponectin expressed in the cell culture medium when treated with the novel compound of the present invention, which is an indicator of adipocyte differentiation promoting.
The adipocyte differentiation was performed by culturing human adipose tissue derived mesenchymal stem cells (hAT-MSCs) from Lonza Inc. (Walkersville, Md., USA) according to Lonza's guidelines. The adipocyte differentiation was carried out using the method recommended by Lonza Inc., except that the adipocyte differentiation of adipose-derived mesenchymal stem cells is induced by using troglitazone (TRO) instead of indomethacin. Specifically, the mesenchymal stem cells were differentiated into adipocytes by adding the medium for adipocyte differentiation (hereinafter referred to as IDX), which was prepared by mixing […] of insulin, […] of Dexamethasone (DEXA), 0.5 mM of isobutylmethylxanthine (IBMX) and […] of TRO, to the culture medium of mesenchymal stem cells, and then culturing it.
In order to determine the expression level of adiponectin, after the medium for adipocyte differentiation was collected on the 14th day of differentiation, the amount of adiponectin was quantified using the Adiponectin ELISA Kit (R & D systems, Cat. No. DY1065) (each data value was corrected by the control group). The specific measurement method using Adiponectin ELISA Kit was as follows.
First, the capture antibody was reacted in a 96-well plate, washed with washing buffer solution, and then the material shown in Table 1 below was added and reacted at room temperature for 2 hours. Thereafter, while washing three times every time when going through each step, the detection antibody, the HRP enzyme, the substrate solution, and the stop solution were added in order and reacted for the time indicated in the protocol. After the final reaction, the absorbance was measured at a wavelength of 450 nm using a spectrophotometer.

[1] = IDX differentiation medium + material at 60 (unit uncertain)

SMILES	Adiponectin (pg/ml, Avg ± S.D.) [1]	Adiponectin (pg/ml, Avg ± S.D.) (IDX differentiation medium + material (concentration not given))	Adiponectin (pg/ml, Avg ± S.D.) (IDX differentiation medium + material at 400 (unit uncertain))	expression level of adiponectin (in words)
O=C(/C=C/c1ccc2c(c1)OCO2)OCc1cc(=O)c(O)co1 [Seletinoid G]	1505 ± 109 pg/mL	–	–	–
COc1ccc(Cl)cc1C(=O)NCCc1ccc(S(=O)(=O)NC(=O)NC2CCCCC2)cc1 [Glibenclamide]	–	1920 ± 100 pg/mL	–	–
O=c1cc(CO)occ1O [Kojic acid]	–	–	303 ± 98 pg/mL	not increased
CC1=CCCC(C)(C)C1/C=C/C(=O)OCc1cc(=O)c(O)co1 (stereo not drawn) [compound of example (Formula 1), 3-(2,6,6-trimethyl-cyclohex-2-enyl)-propenoic acid 5-hydroxy-4-oxo-4H-pyran-2-ylmethyl ester]	1730 ± 120 pg/mL	–	–	increases almost similarly to that with Glibenclamide
